From a melting point compilation (Tetko et al.; mined from patent text by program, amines drawn as free bases though some values may be those of a salt)

| SMILES | melting point [°C] |
| --- | --- |
| CNc1cc(Oc2ccc(NC(=O)Nc3ccc(Br)c(C(F)(F)F)c3)cc2)ncn1 | 161 to 164 |
| Cc1ccc2c(Cl)c3ccccc3nc2c1 | 117 to 118 |
| NS(=O)(=O)c1nc(Cl)cs1 | 137 to 142 |
| c1ccc(OCCSCc2nnc(-c3ccc4cc(CN5CCCCC5)ccc4c3)o2)cc1 | 93 to 94 |
| Cc1ccc(-c2nc(CCCCCCSC(C)(C)C(=O)O)c(C)o2)cc1 | 111 |
| O=C1C(O)=C(c2ccc3ccccc3c2)C(=O)C(O)=C1c1ccc(Cl)cc1 | 302 to 303 |
| Cc1ccc(S(=O)(=O)Oc2ccc(C(=O)c3c(-c4ccccc4)cc4ccccn34)cc2)cc1 | 177 to 178 |
| CCc1nc2c(o1)C(=O)C=CC2=O | 99 |
| O=C(O)C=C1SC(=Nc2ccc(Br)c(Br)c2)N(c2ccc(Br)c(Br)c2)C1=O | 235 to 237 |
| CC(c1oc2ccccc2c(=O)c1-c1ccccc1)n1cnc2c(N)ncnc21 (stereo not given) | 254 to 257 |
| O=C(Nc1cccc(C(F)(F)F)c1)c1cccnc1NCc1cccc(O)c1 | 143 to 146 |
| CSC(=N[N+](=O)[O-])N(C)C(C)=O | 40 to 41 |
| NC(=S)c1ncn(C2OC(CO)C(O)C2O)n1 (stereo not given) | 173 to 175 |
| CCN1C[C@@H](O)[C@H](NC2CCCCC2)C1 (relative stereo) | 68 to 71 |
| CC1(C)CCC(C)(C)c2cc(C(=O)NNC(=O)c3ccc(C#N)cc3)ccc21 | 274 to 277 |
| CC(Sc1nc2ccc(N)cc2s1)C(=O)NCCN(C)Cc1ccc(Cl)c(Cl)c1 (stereo not given) | 97 to 100 |
| CCc1c(C(=O)c2cc(C)cc(C)c2)n(CCC2=CCCC2)c(=O)[nH]c1=O | 211 to 213 |
| CCOC(=O)c1cc2cc(N)ccc2[nH]1 | 124 to 125 |
| Cc1ccc(C(=O)C=Cc2ccc[nH]2)cc1 | 158 to 160 |
| CC(C)(C)c1cc(C(C)(C)C)n(Cc2ccc(COc3ccc(CCC(=O)O)c(F)c3)cc2)n1 | 152 to 153 |
| CC(NSc1nc2ccccc2s1)c1ccccc1 (stereo not given) | 50 to 53 |
| COC(=O)CN(C=O)C1c2ccccc2CC1(C)C (stereo not given) | 172 to 173 |
| c1ccc2c(c1)nc(NC1CCCC1)c1nncn12 | 257 to 260 |
| CCOC(=O)c1cc2c(C)c(C)cc(NS(=O)(=O)c3cccs3)c2[nH]1 | 161 to 162 |
| CCc1nn(C2CCCC2)c2cc(-c3cccs3)ccc12 | 60 to 64 |

| SMILES | melting point [°C] |
| --- | --- |
| COc1ccccc1N1CCN(CCC(C(N)=O)(c2ccccn2)c2ccccc2[N+](=O)[O-])CC1 (stereo not given) | 63 to 72 |
| COC(=O)Cn1c(C)cc(CC2CCCCC2)c([N+](=O)[O-])c1=O | 128 |
| COc1cc(Nc2nccc(-c3cccc(OCCO)c3)n2)cc(OC)c1OC | 70 |
| COCc1cnc2c(NC(=O)c3c(Cl)cccc3Cl)ccc(C)c2c1N1CCN(C)C1=O | 105 to 112 |
| O=S(=O)(Cl)c1ccc2c(c1)oc1ccccc12 | 142 to 144 |
| Cc1nc2cc(C(F)(F)F)c(Cl)c([N+](=O)[O-])c2n1N(C)C | 160 to 162 |
| COc1cc2c(cc1[N+](=O)[O-])C(=O)C1(CC1)O2 | 160 to 163 |
| O=C(c1ccc(Cl)cc1)c1c(Cl)cc2n1CCC2C(=O)O (stereo not given) | 197 |
| O=C1OC(=O)c2cc3c(cc21)CCOC3 | 156 to 158 |
| O=C(c1cccc2cc[nH]c12)N1CCN(c2cccc(C(F)(F)F)c2)CC1 | 147 to 151 |
| O=C(Nc1ccc(Sc2c(O)c3c(Cl)cc(Cl)cc3[nH]c2=O)cc1)c1cccnc1 | > 300 |
| COc1ccc(-c2coc3ccc(-c4nnc(SCc5cccc(C(F)(F)F)c5)o4)cc23)cc1 | 119 to 120 |
| COc1ncc(-c2nn(C(C)c3oc4ccccc4c(=O)c3-c3cccc(F)c3)c3ncnc(N)c23)c(OC)n1 (stereo not given) | 286 to 290 |
| COc1cc(COc2cc(CCc3ccccn3)n(-c3ccccc3)n2)ccc1OCc1nc(-c2ccco2)oc1C | 104 to 105 |
| CC[C@H](C)[C@@H](CO)NS(=O)(=O)c1ccc(I)cc1 | 118 to 120 |
| Cn1c2cc(Cl)ccc2c2c(C=O)nn(-c3ccccc3)c(=O)c21 | 235 to 236 |
| On1nc(Br)c(Cl)c1Br | 160 |
| CN1c2ccccc2C(=C2CCN(C(=O)OCC(Cl)(Cl)Cl)CC2)c2ccccc21 | 190 to 192 |
| CC(CSc1cc(C(C)(C)C)c(O)c(C(C)(C)C)c1)C(=O)N1CCCC1 (stereo not given) | 125 to 126 |
| C=CCON=C(C(=O)OCC)c1csc(N)n1 | 102 to 104 |
| O=C1c2cc(F)ccc2-n2cnc(C(=O)n3ccnc3)c2[C@@H]2CCCN12 | 206 to 207 |
| COc1ccc(C(C)=Nc2ccc(C3=NNC(=O)CC3)cc2)c(O)c1 | 269 |
| COc1ccc(-c2cc3c(OC)c(Br)c(OC)cc3o2)cc1 | 107 to 109 |
| CC(=O)N1CN(C(=O)c2c(F)cccc2F)C(=O)N(c2ccc(Cl)cc2)C1 | 171 to 172 |
| CC(C)(C)CNc1ccnc2sc(C(N)=O)c(N)c12 | 238 to 240 |

| SMILES | melting point [°C] |
| --- | --- |
| CCCCOC(=O)c1cc(Oc2ccc3c(C(=O)Nc4cccc(C(F)(F)F)c4)cccc3c2)ccn1 | 128 to 130 |
| CS(=O)c1ccc(C2=NN(S(=O)(=O)c3ccc(I)cc3)CCC2)cc1 (stereo not given) | 191 to 193 |
| O=C1c2ccccc2OCC1C(=O)C(F)(F)F (stereo not given) | 81 to 83 |
| COC=C(C(=O)OC)c1ccccc1COc1ccccc1 | 60 |
| CCC(C)(C)Nc1c(N(Cc2ccc(Cl)cc2Cl)C(C)=O)c(=O)c1=O | 114 to 116 |
| COc1cc(SC)c(C)cc1OCCBr | 66 to 67 |
| COC(=O)c1ccc(-c2cc(C)n(Cc3ccccc3)n2)o1 | 65 to 66 |
| COC(=O)C(CC(C)C)NC(=O)c1ccc(NCc2ncc[nH]2)cc1-c1ccccc1 (stereo not given) | 156 to 160 |
| Cc1c(CN2CCOCC2)sc2c(Br)c3ccccc3c(-c3cc(Br)c(O)c(Br)c3)c12 | 237 to 240 |
| c1ccc(N2CCN(c3nc4c(c(NC5CCCCC5)n3)SCC4)CC2)cc1 | 174 to 175 |
| COC(=O)CC(=O)NCc1cc(Br)cc2[nH]c(=O)c(=O)[nH]c12 | > 300 |
| NCCOc1ccc(C(=C(c2ccc(F)cc2)C(F)(F)F)c2ccccc2)cc1 | 83 to 89 |
| COc1ccc(-c2nnc(Nc3ccc4cccnc4c3)cc2-c2ccc(C(F)(F)F)cc2)cc1 | 215 to 217 |
| COC(=O)c1c2ccccc2nc2cc(Cl)ccc12 | 148 |
| CC(C)CCOc1c(-c2ccc(S(N)(=O)=O)cc2)cnn(-c2ccc(F)c(F)c2)c1=O | 149 to 151 |
| O=C(O)c1cc(-c2ncnc(C(F)F)c2Cl)c(F)cc1Cl | 217 to 219 |
| CONc1nc(Nc2ccc(C#N)cc2)nc(Oc2c(C)cc(C#N)cc2C)c1Br | 185 to 186 |
| O=C1Nc2c(O)cccc2C(=O)N2CCCC12 (stereo not given) | 280 to 282 |
| O=C(Cc1c(-c2ccccc2)c2cc(CN3CCNCC3)c(Cl)cc2oc1=O)Nc1ccc(Cl)cc1C(F)(F)F | 237 to 242 |
| O=C(O)[C@H](Cc1cccc(OC(F)(F)C(F)F)c1)[C@@H](O)c1cccc(F)n1 (racemic) | 103 to 104 |
| Cc1cnccc1C#N | 45 to 47 |
| COc1cc(N2CCCC2)ccc1CN1C(=O)C(C)(c2ccccc2Cl)c2cc(Cl)ccc21 (stereo not given) | 198 |
| CC1C(NC(=O)OCc2ccccc2)C(=O)N1OCC(=O)OC(C)(C)C (stereo not given) | 30 |
| O=C(O)CN1CC(=O)N(Cc2cccc([N+](=O)[O-])c2)C1=O | 165 to 166 |
| CCOc1c(NC(C)(C)C)c(=O)c1=O | 80 to 82 |

| SMILES | melting point [°C] |
| --- | --- |
| CC1(C)Oc2cc(C#N)sc2[C@@H](N2CCCCC2=O)[C@@H]1OCc1ccccc1 (relative stereo) | 174 to 178 |
| O=C(Oc1ccccc1)c1cc([N+](=O)[O-])c2ccccc2c1O | 157 |
| CCC1(CCCCN2CCN(c3ccccn3)CC2)C(=O)Nc2c(Cl)cc(Cl)cc21 (stereo not given) | 144 to 146 |
| CC(=N)N(C)C1CCCCC1 | 108 to 110 |
| CC=C1CCC(C(=O)OC)C(C(=O)OC)C1 (stereo not given) | 162 to 163 |
| Cc1cccc(C(=O)NO)c1N(C)S(=O)(=O)c1ccc(OCCCNC(=O)c2cc3ccccc3[nH]2)cc1 | 144 to 146 |
| COc1ccc(C2=NN(c3cnc4ccccc4n3)C(=O)[C@H]3CC=CC[C@@H]23)cc1Cl (relative stereo) | 172 to 174 |
| NS(=O)(=O)c1ccc(NCC(=O)Nc2ccccc2)cc1 | 257 to 258 |
| COc1ccc(CNS(=O)(=O)Cc2ccc3[nH]cc(CCN(C)C)c3c2)cc1 | 200 to 201 |
| Cc1ccc2nc(-c3ccccc3F)oc2n1 | 136 to 137 |
| Cc1ccc(C[C@@H]2CN(CCCN3C(=O)c4ccccc4C3=O)CCN2C(=O)c2cc(C(F)(F)F)cc(C(F)(F)F)c2)cc1C | 146 to 147 |
| CCOC(=O)c1ncc2[nH]c3ccc(C4CCCC(=O)C4)cc3c2c1C (stereo not given) | 182 to 189 |
| COC(=O)C(C)(C)OCc1cc2nc(Cl)ccc2n1S(=O)(=O)c1ccc2c(c1)OCO2 | 131 |
| O=C(O)CCc1[nH]nc2c1CCCC2 | 135 to 136 |
| COc1cc(OC)c(N2CCCC2)cc1/C=C/C(=O)c1ccc(S(N)(=O)=O)cc1 | 220 to 222 |
| C[Si](C)(C)C#Cc1ccnc(Cl)n1 | 51 to 54 |
| CCCCNc1ccn2ncc(Br)c2n1 | 94 to 95 |
| COc1ccc(C(=O)c2ccc(OCc3coc(-c4ccccc4)n3)cc2)c(OC(C)(C)C(=O)O)c1 | 165 to 167 |
| Cc1c(NC(=O)c2ccc(Oc3ccccc3)cc2)ccc2cc(CN3CCCC3)cnc12 | 161 to 162 |
| CCOc1nn(Cc2ccc(Cl)cc2Cl)cc1CCCO | 58 to 59 |
| N#CC1=C(Nc2cc(F)cc(F)c2)CCC1 | 113 to 115 |
| Cc1ccc(N2C(=O)c3ccccc3NC2c2ccc(=O)[nH]c2)cc1C(F)(F)F (stereo not given) | 250 to 251 |
| CCCCCCCCCCCCCCCCCCNC(=O)OCC(CNS(=O)(=O)CCCCl)NC(C)=O (stereo not given) | 110 to 112 |
| Cn1nc(-c2ccc(C(=N)N)cc2)cc(C(=O)N[C@H]2CC[C@H](C(=O)O)CC2)c1=O | 263 to 266 |
| CCOP(=O)(Cc1cc(=O)[nH]c2cc(I)ccc12)OCC | 196 to 198 |
